Source: PubChem BioAssay (NCI)
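1) Cells in 96-well plates. 2) Compound, 48 h, 5 concentrations. 3) Linear interpolation between surrounding doses. 4) Unreached endpoint = highest concentration. Definition used: TGI = concentration required for complete inhibition of growth.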

Experiments:
Experiment in all cases: DTP human tumour cell line panel, 48 h
[1] = tested on: MDA-N
[2] = tested on: DU-145 prostate
[3] = tested on: SN12C renal
[4] = tested on: RPMI-8226 leukemia
[5] = tested on: MALME-3M melanoma
[6] = tested on: HL-60(TB) leukemia
[7] = tested on: TK-10 renal
[8] = tested on: ACHN renal
[9] = tested on: IGROV1 ovarian
[10] = tested on: M14 melanoma
[11] = tested on: KM12 colon
[12] = tested on: HT29 colon
[13] = tested on: SF-268 CNS

| SMILES | TGI [1] | TGI [2] | TGI [3] | TGI [4] | TGI [5] | TGI [6] | TGI [7] | TGI [8] | TGI [9] | TGI [10] | TGI [11] | TGI [12] | TGI [13] |
| --- | --- | --- | --- | --- | --- | --- | --- | --- | --- | --- | --- | --- | --- |
| COc1ccc(N=C/C=C/C(=C/COC(C)=O)OC(C)=O)cc1 | 43.8 µM | > 100 µM | 74.9 µM | > 100 µM | 69.5 µM | 98.5 µM | > 100 µM | 34.4 µM | 45.1 µM | > 100 µM | > 100 µM | 70.6 µM | 86 µM |
| Cc1ccc2c(c1)C(=O)c1ccc(C)nc1C2=O | 31.4 µM | > 100 µM | 59.2 µM | > 100 µM | 52.5 µM | > 100 µM | > 100 µM | > 100 µM | 83.2 µM | > 100 µM | > 100 µM | > 100 µM | > 100 µM |
| COc1ccc(C(c2ccccc2)N2C(=O)CCC2C(=O)O)cc1OC (stereo not drawn) | > 100 µM | > 100 µM | > 100 µM | > 100 µM | > 100 µM | > 100 µM | > 100 µM | > 100 µM | > 100 µM | > 100 µM | > 100 µM | > 100 µM | > 100 µM |
| COC(=O)[C@H]1[C@H](OC(=O)[C@@H](OC)c2ccccc2)ON2CC[C@@H](OC(=O)c3ccccc3)[C@H]12 | > 100 µM | > 100 µM | > 100 µM | > 100 µM | > 100 µM | > 100 µM | > 100 µM | 25.6 µM | > 100 µM | > 100 µM | > 100 µM | > 100 µM | > 100 µM |
| CC(C)=CCc1c(O)c(CC=C(C)C)c2oc3c(c(=O)c2c1O)C(C=C(C)C)Oc1cc(O)ccc1-3 (stereo not drawn) | 12.1 µM | 24.3 µM | 18.2 µM | 20.6 µM | 37 µM | 29.8 µM | 13.3 µM | 15.4 µM | 20.2 µM | 21 µM | 11.6 µM | 23.1 µM | 28 µM |
| ClCc1nc2cc(Cl)ccc2o1 | 21.4 µM | 14.1 µM | 20.9 µM | 4.07 µM | 27.3 µM | 21.1 µM | 7.9 µM | 3.33 µM | 3.29 µM | 17.4 µM | 28.6 µM | 6.5 µM | 26.7 µM |
| CCOC(=O)c1c(C)n(-c2ccc(C)cc2)c2c1cc(O)c1[nH]c3c(c12)CCCC3 | 46.6 µM | 42.5 µM | > 100 µM | 24.8 µM | 37 µM | 51.7 µM | 77.8 µM | > 100 µM | 33.9 µM | 42.6 µM | 51.5 µM | 32.3 µM | 55.2 µM |
| N/C(=N/O)c1cn(C2OC(CO)C(O)C2O)c2ncnc(NO)c12 (stereo not drawn) | > 100 µM | > 40 µM | > 100 µM | 1.86 µM | 0.408 µM | 0.76 µM | > 33.6 µM | 4.72 µM | > 51 µM | 2.88 µM | – | > 100 µM | > 100 µM |
| C=CCSC1=N/C(=C\c2ccco2)C(=O)N1CC=C | > 100 µM | > 100 µM | > 100 µM | > 100 µM | > 100 µM | 60.2 µM | > 100 µM | > 100 µM | > 100 µM | > 100 µM | > 100 µM | > 100 µM | > 100 µM |
| C[N+](C)(C)C(Cc1c[nH]c(=S)[nH]1)C(=O)O (stereo not drawn) | > 100 µM | > 100 µM | > 100 µM | > 100 µM | > 100 µM | > 100 µM | > 100 µM | > 100 µM | > 100 µM | > 100 µM | > 100 µM | > 100 µM | > 100 µM |
| CC(C)Cn1cnnc1NS(=O)(=O)c1cc(C(=O)NN)c(Cl)cc1S | > 10 µM | > 10 µM | > 10 µM | > 10 µM | > 10 µM | > 10 µM | > 10 µM | > 10 µM | > 10 µM | > 10 µM | > 10 µM | > 10 µM | > 10 µM |
| O=C(c1no[n+]([O-])c1C(=O)c1csc2ccccc12)c1csc2ccccc12 | 21.6 µM | 32.3 µM | 12.1 µM | 1.95 µM | 13.5 µM | 0.0737 µM | 4.9 µM | 16 µM | 5.69 µM | 22.4 µM | 18.7 µM | 13.7 µM | 23.2 µM |
| CCOC(=O)c1cc(NC(=O)c2ccccc2)c(=O)n2c(cc3c(Cl)cccc32)c1O | > 100 µM | > 100 µM | > 100 µM | > 100 µM | > 100 µM | > 100 µM | > 100 µM | > 100 µM | > 100 µM | > 100 µM | > 100 µM | > 100 µM | > 100 µM |
